Key:
Experiment in all cases: standard MIC test, synergist in combination with amoxycillin
Assay type in all cases: cell-based
Settings in all cases: substance alone, unit assumed
[1] = system: E.coli JT39
Protocol: (§1) In a standard MIC test the compound of Example 2 was tested as a synergist in combination with amoxycillin: […]

[2] = system: Staph Aureus Russell
Protocol: as §1

[3] = system: Klebsiella Aerogenes E70
Protocol: as §1

## CC1(C)S[C@@H]2[C@H](NC(=O)[C@H](N)c3ccc(O)cc3)C(=O)N2[C@H]1C(=O)O [Amoxycillin]
[1]
  MIC: 2000 µg/mL
[2]
  MIC: 500 µg/mL
[3]
  MIC: 500 µg/mL

## COC(OC)OC/C=C1\O[C@@H]2CC(=O)N2[C@H]1C(=O)O [Ex. 2, Lithium 9-O-(dimethoxymethyl)clavulanate]
[1]
  MIC: 31 µg/mL
[2]
  MIC: 62 µg/mL
[3]
  MIC: 62 µg/mL

Reference: EP0080284A1, “Derivatives of clavulanic acid, processes for their preparation and their use” (BEECHAM GROUP PLC, priority 1981, dated 1983)
